Measurements published in patent US11963520B2, “Transgenic mouse expressing human cereblon” (Celgene Corporation, priority 2016, dated 2024).

Assays:
Type in all cases: cell-based, mouse
GSPT1 = assay: Ex vivo compound treatment of splenocytes, western blot of GSPT1 degradation (GSPT1 versus GAPDH); settings: 4 hr ex vivo
Description: (§1) For example, degradation of CRBN substrate (e.g., Aiolos, Ikaros, or GSPT1) was evaluated by ex vivo compound treatment of splenocytes isolated from the human CRBN transgenic mice. Spleens from wild type (WT), heterozygous (HET), and homozygous human CRBN knock-in mice (HOM) were collected and dissociated in 5 mL PBS using gentleMACS™ Dissociator (Miltenyi Biotec, San Diego, CA). Spleen homogenates were filtered using 70 μm pre-separation filters (#130-095-823, Miltenyi Biotec) into 15-mL conical tubes and centrifuged at 1200 rpm for 5 min. After decanting, splenocytes were re-suspended in 1 mL of ACK Lysing Buffer (Gibco #A10492-01, Thermo Fisher Scientific, Waltham, MA) for 2 min. to lyse red blood cells. Ten mL of cold PBS was added to each conical tube to stop lysis, and splenocytes were again centrifuged at 1200 rpm for 5 min. After decanting, splenocytes were re-suspended in 1 mL PBS, filtered again, and pooled for each mouse phenotype to count and determine viability using Vi-Cell™ XR cell counter (Beckman Coulter, Indianapolis, IN). After counting and viability check, tubes with pooled splenocytes were centrifuged at 1200 rpm for 5 min., decanted, and resuspended in warm RPMI 1640 media supplemented with 10% FBS at a concentration of 5.5×10^6 splenocytes/mL (20-30 mL depending on number of splenocytes).
(§2) 15×10^6 WT, HET, or HOM splenocytes were plated in wells of separate 6-well plates. Compounds diluted in DMSO (final concentration 0.2%)/RPMI 1640 media were dispensed into wells at concentrations ranging from 10 μM to 1 nM. 0.2% DMSO was also dispensed in one well of each plate as a negative control. Splenocytes were treated with compounds from 4 to 24 hrs in incubators at 37° C. Compound-treated splenocytes were then collected in 15 mL conical tubes, centrifuged at 1500 rpm for 6 mins, media aspirated off, and washed once with 5 mL PBS. After washing, splenocytes were again centrifuged, PBS was aspirated off, and splenocyte pellets were flash frozen on dry ice.
Splenocyte pellets were lysed using cold 1× cell lysis buffer (#9803, Cell Signaling Technology, Danvers, MA), supplemented with cOmplete ULTRA protease inhibitor tablet (#05892920001, Roche Diagnostics Corporation, Indianapolis, IN) and phosphatase inhibitors (Pierce #78442, Thermo Fisher Scientific, Waltham, MA). Protein concentration of lysates was determined using BCA Protein Assay Kit (Pierce #A10492-01, Thermo Fisher Scientific, Waltham, MA) and western blots were run to evaluate substrate degradation resulting from ex vivo compound treatment. Twenty microgram of each splenoctye lysate was loaded onto 4-12% Criterion XT Bis Tris gels (Bio-Rad #3450124, Bio-Rad Laboratories, Hercules, CA) and run at 130 V for 1.5 hr and then transferred onto nitrocellulose membranes using Trans-Blot Turbo Transfer System (Bio-Rad Laboratories). After 1 hr of blocking in Odyssey® Blocking buffer (#927-40100, LI-COR Biotechnology, Lincoln, NE), membranes were incubated with primary antibodies for Aiolos (polyclonal goat, #sc-18683, Santa Cruz Biotechnology, Dallas, TX), Ikaros (monoclonal rabbit, #14859, Cell Signaling Technology), GSPT-1 (polyclonal rabbit, #ab49878, Abcam PLC, Cambridge, United Kingdom), GAPDH (monoclonal mouse, #AM4300, Thermo Fisher Scientific) overnight at 4° C. After washing in PBST, membranes were probed with a fluorescent secondary antibody, Alexa Fluor 680® goat anti-rabbit IgG (Invitrogen #A-21076, Thermo Fisher Scientific) or IRDye® 800CW goat anti-mouse IgG (#926-32210, LI-COR Biotechnology), for 1 hr at room temperature. Following incubation with secondary antibodies, membranes were again washed in PBST. Membranes were scanned using Odyssey® CLx Imaging System (LI-COR Biotechnology) and quantified using Image Studio™ software. […]

Aiolos = assay: Ex vivo compound treatment of splenocytes, western blot of Aiolos degradation (Aiolos versus GAPDH)
Description: as §1, §2
(§3) Splenocyte pellets were lysed using cold 1× cell lysis buffer (#9803, Cell Signaling Technology, Danvers, MA), supplemented with cOmplete ULTRA protease inhibitor tablet (#05892920001, Roche Diagnostics Corporation, Indianapolis, IN) and phosphatase inhibitors (Pierce #78442, Thermo Fisher Scientific, Waltham, MA). Protein concentration of lysates was determined using BCA Protein Assay Kit (Pierce #A10492-01, Thermo Fisher Scientific, Waltham, MA) and western blots were run to evaluate substrate degradation resulting from ex vivo compound treatment. Twenty microgram of each splenoctye lysate was loaded onto 4-12% Criterion XT Bis Tris gels (Bio-Rad #3450124, Bio-Rad Laboratories, Hercules, CA) and run at 130 V for 1.5 hr and then transferred onto nitrocellulose membranes using Trans-Blot Turbo Transfer System (Bio-Rad Laboratories). After 1 hr of blocking in Odyssey® Blocking buffer (#927-40100, LI-COR Biotechnology, Lincoln, NE), membranes were incubated with primary antibodies for Aiolos (polyclonal goat, #sc-18683, Santa Cruz Biotechnology, Dallas, TX), Ikaros (monoclonal rabbit, #14859, Cell Signaling Technology), GSPT-1 (polyclonal rabbit, #ab49878, Abcam PLC, Cambridge, United Kingdom), GAPDH (monoclonal mouse, #AM4300, Thermo Fisher Scientific) overnight at 4° C. After washing in PBST, membranes were probed with a fluorescent secondary antibody, Alexa Fluor 680® goat anti-rabbit IgG (Invitrogen #A-21076, Thermo Fisher Scientific) or IRDye® 800CW goat anti-mouse IgG (#926-32210, LI-COR Biotechnology), for 1 hr at room temperature. Following incubation with secondary antibodies, membranes were again washed in PBST. Membranes were scanned using Odyssey® CLx Imaging System (LI-COR Biotechnology) and quantified using Image Studio™ software.
(§4) A second ex vivo experiment using splenocytes from WT, HET, and HOM mice was conducted to study the dose dependency of Aiolos or Ikaros degradation in response to a range of Compound B concentrations. […]

Ikaros = assay: Ex vivo compound treatment of splenocytes, western blot of Ikaros degradation (Ikaros versus GAPDH)
Description: as §1, §2, §3, §4

[1] = HET and HOM splenocytes, 1 μM or 10 μM, 24 hrs ex vivo
[2] = HET splenocytes, 0.001 μM, 6 hr ex vivo
[3] = HET splenocytes, 0.01 μM, 6 hr ex vivo
[4] = HET splenocytes, 0.1 μM, 6 hr ex vivo
[5] = HET splenocytes, 1 μM, 6 hr ex vivo
[6] = HET splenocytes, 1 μM, 24 hr ex vivo
[7] = HOM splenocytes, 0.001 μM, 6 hr ex vivo
[8] = HOM splenocytes, 0.01 μM, 6 hr ex vivo
[9] = HOM splenocytes, 0.1 μM, 6 hr ex vivo
[10] = HOM splenocytes, 1 μM, 6 hr ex vivo
[11] = HOM splenocytes, 1 μM, 24 hr ex vivo
[12] = WT splenocytes, 1 μM or 10 μM, 24 hrs ex vivo
[13] = WT splenocytes, 1 μM, 24 hr ex vivo
[14] = WT splenocytes, 10 μM, 24 hr ex vivo
[15] = WT splenocytes, any concentration (1, 0.1, 0.01, 0.001 μM), 6 hr ex vivo

## O=C1CCC(N2Cc3cc(CNC(=O)C(F)(F)c4ccc(F)cc4)ccc3C2=O)C(=O)N1 (stereo not drawn) [Compound E, 2-(4-flurophenyl)-N-((2-(2,6-dioxopiperidin-3-yl)-1-oxoisoindolin-5-yl)methyl)-2,2-difluoroacetamide]
GSPT1; HOM splenocytes, 100 nM
  degradation of GSPT1: 70%
GSPT1; HOM splenocytes, 10 μM
  degradation of GSPT1: 74%
GSPT1; HOM splenocytes
  degradation of GSPT1 (in words): significant degradation
GSPT1; WT splenocytes, 100 nM
  degradation of GSPT1: 0%
GSPT1; WT splenocytes, 10 μM
  degradation of GSPT1: 6%

## O=C1CC[C@H](N2Cc3c(OCc4ccc(CN5CCOCC5)cc4)cccc3C2=O)C(=O)N1 (stereo in doubt) [Compound B, 3-(4-((4-(morpholinomethyl)benzyl)oxy)-1-oxoisoindolin-2-yl)piperidine-2,6-dione]
Aiolos; HET (heterozygous human CRBN knock-in) splenocytes, 10 μM, 24 hr ex vivo
  degradation of Aiolos: 77%
Aiolos; [1]
  degradation of Aiolos (in words): significant degradation
Aiolos; [2]
  degradation of Aiolos: 0%
Aiolos; [3]
  degradation of Aiolos: 13%
Aiolos; [4]
  degradation of Aiolos: 32%
Aiolos; [5]
  degradation of Aiolos: 41%
Aiolos; [6]
  degradation of Aiolos: 76%
Aiolos; HOM (homozygous human CRBN knock-in) splenocytes, 10 μM, 24 hr ex vivo
  degradation of Aiolos: 84%
Aiolos; [7]
  degradation of Aiolos: 28%
Aiolos; [8]
  degradation of Aiolos: 54%
Aiolos; [9]
  degradation of Aiolos: 66%
Aiolos; [10]
  degradation of Aiolos: 78%
Aiolos; [11]
  degradation of Aiolos: 81%
Aiolos; [12]
  degradation of Aiolos (in words): only minimal degradation
Aiolos; [13]
  degradation of Aiolos: 28%
Aiolos; [14]
  degradation of Aiolos: 27%
Aiolos; [15]
  degradation of Aiolos (in words): no degradation
Ikaros; [1]
  degradation of Ikaros (in words): significant degradation
Ikaros; [2]
  degradation of Ikaros: 0%
Ikaros; [3]
  degradation of Ikaros: 8%
Ikaros; [4]
  degradation of Ikaros: 45%
Ikaros; [5]
  degradation of Ikaros: 49%
Ikaros; [6]
  degradation of Ikaros: 60%
Ikaros; HET splenocytes, 10 μM, 24 hr ex vivo
  degradation of Ikaros: 68%
Ikaros; [7]
  degradation of Ikaros: 14%
Ikaros; [8]
  degradation of Ikaros: 41%
Ikaros; [9]
  degradation of Ikaros: 55%
Ikaros; [10]
  degradation of Ikaros: 59%
Ikaros; [11]
  degradation of Ikaros: 76%
Ikaros; HOM splenocytes, 10 μM, 24 hr ex vivo
  degradation of Ikaros: 82%
Ikaros; [12]
  degradation of Ikaros (in words): only minimal degradation
Ikaros; [13]
  degradation of Ikaros: 23%
Ikaros; [14]
  degradation of Ikaros: 20%
Ikaros; [15]
  degradation of Ikaros (in words): no degradation

## Cc1ccc(NC(=O)NCc2ccc3c(c2)CN(C2CCC(=O)NC2=O)C3=O)cc1Cl (stereo not drawn) [Compound C, 1-(3-chloro-4-methylphenyl)-3-((2-(2,6-dioxopiperidin-3-yl)-1-oxoisoindolin-5-yl)methyl)urea]
GSPT1; HOM splenocytes, 1 nM
  degradation of GSPT1: 65%
GSPT1; HOM splenocytes, 100 nM
  degradation of GSPT1: 89%
GSPT1; HOM splenocytes
  degradation of GSPT1 (in words): significant degradation
GSPT1; WT splenocytes, 1 nM
  degradation of GSPT1: 11%
GSPT1; WT splenocytes, 100 nM
  degradation of GSPT1: 7%
GSPT1; WT splenocytes
  degradation of GSPT1 (in words): only minimal degradation
